Test results as given in PMC10846744, “Cathelicidin peptide analogues inhibit EV71 infection through blocking viral entry and uncoating” (PLOS Pathogens, 2024).
Where no end group is shown, it is not given here.

Experiments:
Assay type in all cases: cell-based, enterovirus 71 (EV71)
[1] = tested on: EV71 virus; test: Virus attachment assay (q-RT-PCR, immunoblotting); conditions: 1.5 μM peptide (q-RT-PCR, MOI = 1) or 3 μM (immunoblotting, MOI = 10); RD cells 4°C 1 hr
Procedure: (§1) Fig 3 LL-18 and FF-18 inhibit viral attachment and internalization. (A) EV71 virus (MOI = 1) was pre-incubated with 1.5 μM LL-18, FF-18 or 12 μM 12s before they were used to incubate with RD cells at 4°C for 1 hr. Viral RNA was then determined with q-RT-PCR. Values are normalized to vehicle treated cells. ***, P<0.001. (B) EV71 virus (MOI = 1) was pre-incubated with 1.5 μM LL-18, FF-18 or 12 μM 12s before they were used to incubate with RD cells at 4°C for 1 hr followed by 37°C incubation for 1 hr. Viral RNA was then determined with q-RT-PCR. Values are normalized to vehicle treated cells. ***, P<0.001. (C) Diagram of EV71 subgenomic replicon. […] (D) RD cells transfected with EV71 SGR RNA were treated with 1.5 μM LL-18 or FF-18 for 3 hrs (left panel) or 6 hrs (right panel) before luciferase activity was measured. ns, not significant.
(§2) Viral binding and internalization assays were performed as previously described. […] Cells were then washed extensively with ice-cold PBS, and the viruses retained were analyzed with real-time PCR. […]
(§3) Supplementary file ppat.1011967.s002.tif: S2 Fig LL-18 and FF-18 inhibit viral attachment and internalization. […] Cells were then washed extensively and kept cultured for 24 hrs before viral VP1 expression was determined with immunoblotting. […] Cells were then washed extensively and kept cultured for 24 hrs before viral VP1 expression was determined with immunoblotting. […]

[2] = tested on: NanoLuc-EV71 reporter virus / EV71 virus; test: NanoLuc-EV71 reporter virus luciferase and viral RNA time course; conditions: 1.5 μM peptide pre-incubated with virus 1 hr, RD cells, luciferase at time points
Procedure: Fig 2 LL-18 and FF-18 inhibit EV71 infection at the early stages of infection. (A-B) NanoLuc-EV71 reporter virus (A) or EV71 virus (MOI = 1, B) was pre-incubated with 1.5 μM LL-18 or FF-18 for 1 hr before they were used to infect RD cells. Luciferase (A) or viral RNA (B) was determined at indicated time points. Viral RNAs were normalized to mock treated cells at 1 h.p.i. ***, P<0.001. (C-E) EV71 virus (MOI = 1) was either pre-incubated with 1.5 μM LL-18 before infection (-2 and -1 time points), added simultaneously with LL-18 (0 time point) or LL-18 was added at indicated time points post-infection (1, 2, 4, 7 time points) and viral VP1 expression (C), cell viability (D), or viral titer (E) was determined 24 h.p.i. ns, not significant; **, P<0.01; ***, P<0.001. (F-H) EV71 virus (MOI = 1) was either pre-incubated with 1.5 μM FF-18 before infection (-2 and -1 time points), added simultaneously with FF-18 (0 time point) or FF-18 was added at indicated time points post-infection (1, 2, 4, 7 time points) and viral VP1 expression (F), cell viability (G), or viral titer (H) was determined 24 h.p.i. ns, not significant; **, P<0.01; ***, P<0.001.
Full-length NanoLuc-EV71 reporter viruses and subgenomic EV71 replicon (SGR) were described previously. […] Nano luciferase and Renilla luciferase were measured with Nano-Glo or Renilla luciferase assay system from Promega (Madison, WI). […]

[3] = tested on: EV71 virus; test: Virus internalization assay (q-RT-PCR, immunoblotting); conditions: 1.5 μM peptide (q-RT-PCR, MOI = 1) or 3 μM (immunoblotting, MOI = 10); RD cells 4°C 1 hr then 37°C 1 hr
Procedure: as §1, §2, §3

[4] = tested on: EV71 virus; test: Pre-incubation of RD cells with peptide, wash-out, then EV71 infection; conditions: RD cells incubated with peptide 2 hrs, EV71 MOI = 1, cell viability 24 h.p.i (S3A Fig)
Procedure: Supplementary file ppat.1011967.s003.tif: S3 Fig LL-18 binds directly to virus particles. (A) RD cells were pre-incubated with indicated amounts of LL-18, FF-18, DL-37, or LL-37 for 2 hrs before they were washed extensively to remove unbound peptides. Cells were then infected with the EV71 virus (MOI = 1) and cell viability was determined 24 h.p.i. Values were normalized to uninfected RD cells. ***, P<0.001. (B). ^1H NMR spectra of FF-18 peptide in the absence or presence of EV71 virus (green line) or CVB5 virus (red line). (TIF) Click here for additional data file.

Sequence	inhibition of EV71 attachment [1]	inhibition of NanoLuc expression of NanoLuc-EV71 reporter virus [2]	inhibition of EV71 internalization [3]	protection when cells are pre-incubated with peptide and unbound peptide washed out [4]
FRKSKEKIGKFFKRIVQRIFDFLRNLV [FF-18]	could effectively inhibit EV71 attachment	could inhibit the expression of NanoLuc as early as 4 hrs post-infection	strong inhibition	EV71 could still infect these treated cells and cause cell death
FRKSKEKIGKLFKRIVQRILDFLRNLV [LL-18]	could effectively inhibit EV71 attachment	could inhibit the expression of NanoLuc as early as 4 hrs post-infection	strong inhibition	EV71 could still infect these treated cells and cause cell death
